Test results from PubChem BioAssay (NCI).
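96-well plates; 48 h exposure; 5 concentrations. Endpoints by linear interpolation between flanking doses. Not reached: highest tested concentration assigned. TGI: concentration producing complete growth inhibition.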

Assays:
Assay in all cases: NCI tumour cell line growth inhibition, 48 h
SK-OV-3 ovarian = test system: SK-OV-3 ovarian
NCI-H522 lung = test system: NCI-H522 lung
K-562 leukemia = test system: K-562 leukemia
SK-MEL-5 melanoma = test system: SK-MEL-5 melanoma
NCI-H23 lung = test system: NCI-H23 lung
EKVX NSCLC = test system: EKVX NSCLC
SN12C renal = test system: SN12C renal
SK-MEL-2 melanoma = test system: SK-MEL-2 melanoma
UACC-257 melanoma = test system: UACC-257 melanoma
PC-3 prostate = test system: PC-3 prostate
IGROV1 ovarian = test system: IGROV1 ovarian
SW-620 colon = test system: SW-620 colon
CAKI-1 renal = test system: CAKI-1 renal
SF-268 CNS = test system: SF-268 CNS
M14 melanoma = test system: M14 melanoma
UO-31 renal = test system: UO-31 renal
UACC-62 melanoma = test system: UACC-62 melanoma
MDA-MB-435 = test system: MDA-MB-435
OVCAR-5 ovarian = test system: OVCAR-5 ovarian
HL-60(TB) leukemia = test system: HL-60(TB) leukemia
HOP-62 NSCLC = test system: HOP-62 NSCLC
MDA-N = test system: MDA-N
HCT-116 colon = test system: HCT-116 colon
U251 CNS = test system: U251 CNS
MCF7 breast = test system: MCF7 breast
SK-MEL-28 melanoma = test system: SK-MEL-28 melanoma
NCI-H460 lung = test system: NCI-H460 lung
ACHN renal = test system: ACHN renal
COLO 205 colon = test system: COLO 205 colon
HCC-2998 colon = test system: HCC-2998 colon
RXF 393 renal = test system: RXF 393 renal
HCT-15 colon = test system: HCT-15 colon
SNB-75 CNS = test system: SNB-75 CNS
BT-549 breast = test system: BT-549 breast
SF-539 CNS = test system: SF-539 CNS
A549 NSCLC = test system: A549 NSCLC
OVCAR-3 ovarian = test system: OVCAR-3 ovarian
HS 578T breast = test system: HS 578T breast
HOP-92 NSCLC = test system: HOP-92 NSCLC
KM12 colon = test system: KM12 colon
NCI-H226 lung = test system: NCI-H226 lung
MALME-3M melanoma = test system: MALME-3M melanoma
DU-145 prostate = test system: DU-145 prostate
CCRF-CEM leukemia = test system: CCRF-CEM leukemia
SNB-19 CNS = test system: SNB-19 CNS
HT29 colon = test system: HT29 colon
A498 renal = test system: A498 renal
MOLT-4 leukemia = test system: MOLT-4 leukemia
SF-295 CNS = test system: SF-295 CNS
T-47D breast = test system: T-47D breast
SR leukemia = test system: SR leukemia
LOX IMVI melanoma = test system: LOX IMVI melanoma
MDA-MB-231 breast = test system: MDA-MB-231 breast
RPMI-8226 leukemia = test system: RPMI-8226 leukemia
TK-10 renal = test system: TK-10 renal
OVCAR-8 ovarian = test system: OVCAR-8 ovarian
NCI/ADR-RES ovarian = test system: NCI/ADR-RES ovarian
OVCAR-4 ovarian = test system: OVCAR-4 ovarian
786-0 renal = test system: 786-0 renal

`CCC(C)NC1=NCC(C)S1` (configuration not stated) showed a TGI (SK-OV-3 ovarian) greater than 100 µM, a TGI (NCI-H522 lung) greater than 100 µM and a TGI (K-562 leukemia) greater than 100 µM. It also gave a TGI (SK-MEL-5 melanoma) greater than 100 µM, a TGI (NCI-H23 lung) greater than 100 µM and a TGI (EKVX NSCLC) greater than 100 µM. It also gave a TGI (SN12C renal) greater than 100 µM, a TGI (SK-MEL-2 melanoma) greater than 100 µM and a TGI (UACC-257 melanoma) greater than 100 µM. It also gave a TGI (PC-3 prostate) greater than 100 µM, a TGI (IGROV1 ovarian) greater than 100 µM and a TGI (SW-620 colon) greater than 100 µM. For the same compound, the TGI (CAKI-1 renal) was greater than 100 µM, the TGI (SF-268 CNS) was greater than 100 µM and the TGI (M14 melanoma) was greater than 100 µM. For the same compound, the TGI (UO-31 renal) was greater than 100 µM, the TGI (UACC-62 melanoma) was greater than 100 µM and the TGI (MDA-MB-435) was greater than 100 µM. The TGI (OVCAR-5 ovarian) was greater than 100 µM, the TGI (HL-60(TB) leukemia) was greater than 100 µM and the TGI (HOP-62 NSCLC) was greater than 100 µM. It also gave a TGI (MDA-N) greater than 100 µM, a TGI (HCT-116 colon) greater than 100 µM and a TGI (U251 CNS) greater than 100 µM. For the same compound, the TGI (MCF7 breast) was greater than 100 µM, the TGI (SK-MEL-28 melanoma) was greater than 100 µM and the TGI (NCI-H460 lung) was greater than 100 µM. The TGI (ACHN renal) was greater than 100 µM, the TGI (COLO 205 colon) was greater than 100 µM and the TGI (HCC-2998 colon) was greater than 100 µM. It also gave a TGI (RXF 393 renal) greater than 100 µM, a TGI (HCT-15 colon) greater than 100 µM and a TGI (SNB-75 CNS) greater than 100 µM. For the same compound, the TGI (BT-549 breast) was greater than 100 µM, the TGI (SF-539 CNS) was greater than 100 µM and the TGI (A549 NSCLC) was greater than 100 µM. The TGI (OVCAR-3 ovarian) was greater than 100 µM, the TGI (HS 578T breast) was greater than 100 µM and the TGI (HOP-92 NSCLC) was greater than 100 µM. For the same compound, the TGI (KM12 colon) was greater than 100 µM, the TGI (NCI-H226 lung) was greater than 100 µM and the TGI (MALME-3M melanoma) was greater than 100 µM. The TGI (DU-145 prostate) was greater than 100 µM, the TGI (CCRF-CEM leukemia) was greater than 100 µM and the TGI (SNB-19 CNS) was greater than 100 µM. It also gave a TGI (HT29 colon) greater than 100 µM, a TGI (A498 renal) greater than 100 µM and a TGI (MOLT-4 leukemia) greater than 100 µM. The TGI (SF-295 CNS) was greater than 100 µM, the TGI (T-47D breast) was greater than 100 µM and the TGI (SR leukemia) was greater than 100 µM. The TGI (LOX IMVI melanoma) was greater than 100 µM, the TGI (MDA-MB-231 breast) was greater than 100 µM and the TGI (RPMI-8226 leukemia) was greater than 100 µM.
For `Nc1nc(-c2ccccc2)cc(-c2ccc(OCc3ccccc3)cc2O)n1`, the TGI (NCI-H522 lung) was 90.7 µM, the TGI (K-562 leukemia) was greater than 100 µM and the TGI (SK-MEL-5 melanoma) was 35.5 µM. For the same compound, the TGI (NCI-H23 lung) was greater than 100 µM, the TGI (EKVX NSCLC) was greater than 100 µM and the TGI (SN12C renal) was greater than 100 µM. For the same compound, the TGI (SK-MEL-2 melanoma) was greater than 100 µM, the TGI (TK-10 renal) was 91 µM and the TGI (UACC-257 melanoma) was greater than 100 µM. The TGI (PC-3 prostate) was greater than 100 µM, the TGI (IGROV1 ovarian) was greater than 100 µM and the TGI (SW-620 colon) was greater than 100 µM. It also gave a TGI (CAKI-1 renal) greater than 100 µM, a TGI (SF-268 CNS) greater than 100 µM and a TGI (M14 melanoma) greater than 100 µM. The TGI (UO-31 renal) was greater than 100 µM, the TGI (UACC-62 melanoma) was greater than 100 µM and the TGI (MDA-MB-435) was greater than 100 µM. It also gave a TGI (OVCAR-5 ovarian) greater than 100 µM, a TGI (HOP-62 NSCLC) greater than 100 µM and a TGI (MDA-N) greater than 100 µM. For the same compound, the TGI (HCT-116 colon) was greater than 100 µM, the TGI (U251 CNS) was greater than 100 µM and the TGI (MCF7 breast) was greater than 100 µM. It also gave a TGI (SK-MEL-28 melanoma) greater than 100 µM, a TGI (OVCAR-8 ovarian) greater than 100 µM and a TGI (NCI/ADR-RES ovarian) greater than 100 µM. It also gave a TGI (NCI-H460 lung) greater than 100 µM, a TGI (ACHN renal) greater than 100 µM and a TGI (COLO 205 colon) greater than 100 µM. It also gave a TGI (HCC-2998 colon) greater than 100 µM, a TGI (RXF 393 renal) of 76.8 µM and a TGI (HCT-15 colon) greater than 100 µM. For the same compound, the TGI (OVCAR-4 ovarian) was greater than 100 µM, the TGI (SNB-75 CNS) was greater than 100 µM and the TGI (786-0 renal) was greater than 100 µM. The TGI (BT-549 breast) was greater than 100 µM, the TGI (SF-539 CNS) was greater than 100 µM and the TGI (A549 NSCLC) was greater than 100 µM. The TGI (OVCAR-3 ovarian) was 89.1 µM, the TGI (HS 578T breast) was greater than 100 µM and the TGI (HOP-92 NSCLC) was greater than 100 µM. For the same compound, the TGI (KM12 colon) was greater than 100 µM, the TGI (NCI-H226 lung) was greater than 100 µM and the TGI (MALME-3M melanoma) was greater than 100 µM. It also gave a TGI (DU-145 prostate) greater than 100 µM, a TGI (CCRF-CEM leukemia) greater than 100 µM and a TGI (SNB-19 CNS) greater than 100 µM. The TGI (HT29 colon) was greater than 100 µM, the TGI (A498 renal) was greater than 100 µM and the TGI (MOLT-4 leukemia) was greater than 100 µM. The TGI (SF-295 CNS) was greater than 100 µM, the TGI (SR leukemia) was greater than 100 µM and the TGI (LOX IMVI melanoma) was greater than 100 µM. It also gave a TGI (MDA-MB-231 breast) greater than 100 µM and a TGI (RPMI-8226 leukemia) of 60.9 µM.
`CCOC(=O)C1C(=O)CC1(C)C` (configuration not stated) showed a TGI (SK-OV-3 ovarian) greater than 10 µM, a TGI (K-562 leukemia) greater than 10 µM and a TGI (SK-MEL-5 melanoma) greater than 10 µM. It also gave a TGI (NCI-H23 lung) greater than 10 µM, a TGI (EKVX NSCLC) greater than 10 µM and a TGI (SN12C renal) greater than 10 µM. For the same compound, the TGI (SK-MEL-2 melanoma) was greater than 10 µM, the TGI (TK-10 renal) was greater than 10 µM and the TGI (UACC-257 melanoma) was greater than 10 µM. For the same compound, the TGI (PC-3 prostate) was greater than 10 µM, the TGI (IGROV1 ovarian) was greater than 10 µM and the TGI (SW-620 colon) was greater than 10 µM. It also gave a TGI (CAKI-1 renal) greater than 10 µM, a TGI (SF-268 CNS) greater than 10 µM and a TGI (M14 melanoma) greater than 10 µM. The TGI (UO-31 renal) was greater than 10 µM, the TGI (UACC-62 melanoma) was greater than 10 µM and the TGI (MDA-MB-435) was greater than 10 µM. For the same compound, the TGI (OVCAR-5 ovarian) was greater than 10 µM, the TGI (HL-60(TB) leukemia) was greater than 10 µM and the TGI (HOP-62 NSCLC) was greater than 10 µM. It also gave a TGI (MDA-N) greater than 10 µM, a TGI (HCT-116 colon) greater than 10 µM and a TGI (U251 CNS) greater than 10 µM. It also gave a TGI (MCF7 breast) greater than 10 µM, a TGI (SK-MEL-28 melanoma) greater than 10 µM and a TGI (OVCAR-8 ovarian) greater than 10 µM. For the same compound, the TGI (NCI/ADR-RES ovarian) was greater than 10 µM, the TGI (NCI-H460 lung) was greater than 10 µM and the TGI (ACHN renal) was greater than 10 µM. The TGI (COLO 205 colon) was greater than 10 µM, the TGI (HCC-2998 colon) was greater than 10 µM and the TGI (RXF 393 renal) was greater than 10 µM. It also gave a TGI (HCT-15 colon) greater than 10 µM, a TGI (OVCAR-4 ovarian) greater than 10 µM and a TGI (786-0 renal) greater than 10 µM. The TGI (BT-549 breast) was greater than 10 µM, the TGI (SF-539 CNS) was greater than 10 µM and the TGI (A549 NSCLC) was greater than 10 µM. For the same compound, the TGI (OVCAR-3 ovarian) was greater than 10 µM, the TGI (HS 578T breast) was greater than 10 µM and the TGI (HOP-92 NSCLC) was greater than 10 µM. The TGI (KM12 colon) was greater than 10 µM, the TGI (NCI-H226 lung) was greater than 10 µM and the TGI (MALME-3M melanoma) was greater than 10 µM. For the same compound, the TGI (DU-145 prostate) was greater than 10 µM, the TGI (CCRF-CEM leukemia) was greater than 10 µM and the TGI (SNB-19 CNS) was greater than 10 µM. The TGI (HT29 colon) was greater than 10 µM, the TGI (A498 renal) was greater than 10 µM and the TGI (MOLT-4 leukemia) was greater than 10 µM. For the same compound, the TGI (SF-295 CNS) was greater than 10 µM, the TGI (T-47D breast) was greater than 10 µM and the TGI (SR leukemia) was greater than 10 µM. For the same compound, the TGI (LOX IMVI melanoma) was greater than 10 µM, the TGI (MDA-MB-231 breast) was greater than 10 µM and the TGI (RPMI-8226 leukemia) was greater than 10 µM.
